Test results: patent publication US9757427B2, “Combination comprising zidovudine and polymyxin” (HELPERBY THERAPEUTICS LIMITED, priority 2013, dated 2017)

Assays:
[1] = test system: log phase Escherichia coli and Klebsiella pneumoniae; test: chequerboard method, MIC alone and in combination, log phase bacteria; type: cell-based; details: for MIC before combination: single agent, chequerboard
Source text: In relation to (b) above, methods for determining activity against log phase bacteria include a determination, under standard conditions (i.e. conditions known to those skilled in the art, such as those described in WO 2005014585, the disclosures of which document are hereby incorporated by reference), of Minimum Inhibitory Concentration (“MIC”) or Minimum Bactericidal Concentration (“MBC”) for a test compound. Specific examples of such methods are described below. In Vitro Activity of Zidovudine Combined Together with Colistin Against Log Phase Escherichia coli and Klebsiella pneumoniae Using Chequerboard Method

log phase Klebsiella = test: time kill curve against log phase Klebsiella; type: cell-based

Molecule | MIC of HT0120663 in combination ([1]; combined with 2 μg/ml of colistin) [µg/mL] | MIC before combination [1] [µg/mL] | time kill outcome after 6 hours (log phase Klebsiella; HT0120663 at 4 μg/ml, after the 6 hour kill) | log kill (log phase Klebsiella; HT0120663 at 4 μg/ml, at 6 hours) | MIC of colistin in combination ([1]; combined with 2 μg/ml of HT0120663) [µg/mL] | time kill outcome (log phase Klebsiella; Colistin at 16 μg/ml)
Cc1cn([C@H]2C[C@H](N=[N+]=[N-])[C@@H](CO)O2)c(=O)[nH]c1=O [HT0120663, Zidovudine] | 1 | 4 | regrowth of the bacteria | about 1 log | – | –
Colistin | – | 4 | – | – | 0.25 | inhibition up to 6 hours
